Assay results from US11976083B2, “Inhibitors of peptidylarginine deiminases” (Gilead Sciences, Inc., priority 2020, dated 2024).

biological target: T1, human PAD4 (Homo sapiens, UniProt Q9UM07); assay: In vitro PAD4 BAEE biochemical assay; details: BAEE substrate 3 mM, 5 nM PAD4, 2 mM calcium chloride; geometric mean of multiple experiments
T1 construct: human PAD4 (NM_012387), A2-P663, was PCR amplified; His-SUMO (N, cleaved yes); made in house; host or cells: E. coli BL21(DE3)
Excerpt: In Vitro PAD4 BAEE Biochemical Assay
The enzymatic activity of human PAD4 was monitored in a biochemical assay in the presence or absence of compounds using the small peptidyl arginine mimic BAEE (Na-Benzoyl-L-arginine ethyl ester hydrochloride) as substrate. PAD4 activity led to deimination of BAEE and release of ammonia. Levels of ammonia were monitored by using an amine coupling reaction and were indicative of PAD4 enzymatic activity.
One hundred nanoliters of test compounds dissolved in DMSO at various concentrations were dispensed into a 384-well black OptiPlate using a Labcyte Echo instrument. Ten microliters of a solution of recombinant PAD4 and calcium chloride diluted in PAD4 assay buffer (50 mM MOPS [3-(N-morpholino) propanesulfonic acid], pH 7.6; 50 mM sodium chloride; 0.05% Tween-20; 2 mM dithiothreitol) was added to the compound-containing plate and was incubated for 30 minutes at 25° C. Ten microliters of a solution of BAEE (Sigma-Aldrich #B4500) diluted in PAD4 assay buffer was then added to start the reaction. Final concentrations were 5 nM PAD4, 2 mM calcium chloride, and 3 mM BAEE. The reaction mixture was incubated at 25° C. for 2 hours and was stopped with the addition of 10 microliters of a solution of 75 mM EDTA (Ethylenediaminetetraacetic acid) in PAD4 assay buffer. Thirty microliters of detection solution (5 mM o-phthalaldehyde, 50 mM MOPS [3-(N-morpholino) propanesulfonic acid], pH 7.6; 50 mM sodium chloride; 0.05% Tween-20; 5 mM dithiothreitol) was then added and the reaction was incubated for 1 hour at 25° C. The level of fluorescent thiol-substituted isoindole resulting from the reaction of ammonia, o-phthalaldehyde, and dithiothreitol was measured on an Envision plate reader (PerkinElmer) with 405 nm excitation and 535 nm emission.
Data were normalized based on maximum inhibition (50 micromolar of the covalent PAD inhibitor BB-Cl-Amidine (Bicker, K. L.; Anguish, L.; Chumanevich, A. A.; Cameron, M. D.; Cui, X.; Witalison, E.; Subramanian, V.; Zhang, X.; Chumanevich, A. P.; Hofseth, L. J.; Coonrod, S. A.; Thompson, P. R. ACS Med. Chem. Lett. 2012, 3, 1081-1085). and no inhibition (DMSO) controls. Least squares curve fittings were performed using a four-parameter variable slope nonlinear regression model. IC50 is defined as the concentration of compound required to inhibit 50% of maximum activity. IC50 values from multiple experiments were averaged by geometric mean and the standard deviation was calculated.

T1 sequence (Q9UM07 2-663): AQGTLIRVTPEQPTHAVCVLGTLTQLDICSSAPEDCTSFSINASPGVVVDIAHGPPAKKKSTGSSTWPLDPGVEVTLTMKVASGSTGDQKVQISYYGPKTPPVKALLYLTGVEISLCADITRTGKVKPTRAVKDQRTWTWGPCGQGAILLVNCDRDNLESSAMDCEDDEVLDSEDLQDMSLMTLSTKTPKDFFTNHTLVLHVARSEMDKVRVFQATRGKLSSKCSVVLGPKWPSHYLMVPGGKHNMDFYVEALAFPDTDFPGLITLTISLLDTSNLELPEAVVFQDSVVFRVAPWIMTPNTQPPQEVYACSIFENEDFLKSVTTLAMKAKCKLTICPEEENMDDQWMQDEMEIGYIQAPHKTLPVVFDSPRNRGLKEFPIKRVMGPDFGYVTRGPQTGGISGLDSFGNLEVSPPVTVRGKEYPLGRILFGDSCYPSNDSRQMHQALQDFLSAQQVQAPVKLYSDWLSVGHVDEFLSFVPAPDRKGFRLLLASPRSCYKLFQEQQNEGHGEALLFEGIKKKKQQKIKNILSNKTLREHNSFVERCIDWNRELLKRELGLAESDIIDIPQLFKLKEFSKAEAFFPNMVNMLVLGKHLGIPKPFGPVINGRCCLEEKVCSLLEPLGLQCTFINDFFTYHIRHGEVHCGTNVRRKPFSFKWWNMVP

IC50 [nM]	Compound
75	COc1cc(C(=O)N2CCC[C@@H](N)C2)cc2nc(-c3cc4ccc5nc4n3CCC/C=C/C[C@@](C)(C(F)(F)F)C(=O)N[C@@H]5C)n(C)c12 (single isomer, unassigned) [Example 2, (5˜{E},8˜{R},11˜{R})-17-[5-[(3˜{R})-3-aminopiperidine-1-carbonyl]-7-methoxy-1-methyl-benzimidazol-2-yl]-8,11-dimethyl-8-(trifluoromethyl)-1,10,19-triazatricyclo[10.5.2.0^{15,18}]nonadeca-5,12(19),13,15(18),16-pentaen-9-one]
110	COc1cc(C(=O)N2CCC[C@@H](N)C2)cc2nc(-c3cc4ccc5nc4n3CCC/C=C/C[C@](C)(C(F)(F)F)C(=O)N[C@@H]5C)n(C)c12 (single isomer, unassigned) [Example 3, (5˜{E},8˜{S},11˜{R})-17-[5-[(3˜{R})-3-aminopiperidine-1-carbonyl]-7-methoxy-1-methyl-benzimidazol-2-yl]-8,11-dimethyl-8-(trifluoromethyl)-1,10,19-triazatricyclo[10.5.2.0^{15,18}]nonadeca-5,12(19),13,15(18),16-pentaen-9-one]
56	COc1cc(C(=O)N2[C@H]3CC[C@@H]2[C@H](N)C3)cc2nc(-c3cc4ccc5nc4n3C[C@@H]3[C@H](COCCC(=O)N[C@@H]5C)C3(C)C)n(C)c12 (single isomer, unassigned) [Example 10, (3˜{R},5˜{S},12˜{R})-18-[5-[(1˜{R},2˜{R},4˜{S})-2-amino-7-azabicyclo[2.2.1]heptane-7-carbonyl]-7-methoxy-1-methyl-benzimidazol-2-yl]-4,4,12-trimethyl-7-oxa-1,11,20-triazatetracyclo[11.5.2.0^{3,5}.0^{16,19}]icosa-13(20),14,16(19),17-tetraen-10-one]
251	COc1cc(C(=O)N2[C@H]3CC[C@@H]2[C@H](N)C3)cc2nc(-c3cc4ccc5nc4n3C[C@H]3[C@@H](COCCC(=O)N[C@@H]5C)C3(C)C)n(C)c12 (single isomer, unassigned) [Example 11, (3˜{S},5˜{R},12˜{R})-18-[5-[(1˜{R},2˜{R},4˜{S})-2-amino-7-azabicyclo[2.2.1]heptane-7-carbonyl]-7-methoxy-1-methyl-benzimidazol-2-yl]-4,4,12-trimethyl-7-oxa-1,11,20-triazatetracyclo[11.5.2.0^{3,5}.0^{16,19}]icosa-13(20),14,16(19),7-tetraen-10-one]
40	COc1cc(C(=O)N2CCC[C@@H](N)C2)cc2nc(-c3cc4ccc5nc4n3C[C@H]3C[C@H]3CC[C@@H]3C[C@H]3C(=O)N[C@@H]5C)n(C)c12 (single isomer, unassigned) [Example 115, (3˜{S},5˜{R},8˜{R},10˜{R},13˜{R})-19-[5-[(3˜{R})-3-aminopiperidine-1-carbonyl]-7-methoxy-1-methyl-benzimidazol-2-yl]-13-methyl-1,12,21-triazapentacyclo[12.5.2.0^{3,5}.0^{8,10}.0^{17,20}]henicosa-14(21),15,17(20),18-tetraen-11-one]
255	COc1cc(C(=O)N2CCC[C@@H](N)C2)cc2nc(-c3cc4ccc5nc4n3C[C@H]3C[C@H]3CC[C@H]3C[C@@H]3C(=O)N[C@@H]5C)n(C)c12 (single isomer, unassigned) [Example 116, (3˜{S},5˜{R},8˜{S},10˜{S},13˜{R})-19-[5-[(3˜{R})-3-aminopiperidine-1-carbonyl]-7-methoxy-1-methyl-benzimidazol-2-yl]-13-methyl-1,12,21-triazapentacyclo[12.5.2.0^{3,5}.0^{8,10}.0^{17,20}]henicosa-14(21),15,17(20),18-tetraen-11-one]
28	COc1cc(C(=O)N2[C@H]3CC[C@@H]2[C@H](N)C3)cc2nc(-c3cc4ccc5nc4n3CCCCC[C@@H]3C[C@H]3C(=O)N[C@@H]5C)n(C)c12 (single isomer, unassigned) [Example 223, (2˜{R},5˜{R},7˜{R})-14-[5-[(1˜{R},2˜{R},4˜{S})-2-amino-7-azabicyclo[2.2.1]heptane-7-carbonyl]-7-methoxy-1-methyl-benzimidazol-2-yl]-2-methyl-3,13,19-triazatetracyclo[11.5.2.0^{5,7}.0^{16,20}]icosa-1(19),14,16(20),17-tetraen-4-one]
57	COc1cc(C(=O)N2[C@H]3CC[C@@H]2[C@H](N)C3)cc2nc(-c3cc4ccc5nc4n3CCCCC[C@H]3C[C@@H]3C(=O)N[C@@H]5C)n(C)c12 (single isomer, unassigned) [Example 224, (2˜{R},5˜{S},7˜{S})-14-[5-[(1˜{R},2˜{R},4˜{S})-2-amino-7-azabicyclo[2.2.1]heptane-7-carbonyl]-7-methoxy-1-methyl-benzimidazol-2-yl]-2-methyl-3,13,19-triazatetracyclo[11.5.2.0^{5,7}.0^{16,20}]icosa-1(19),14,16(20),17-tetraen-4-one]
113	COc1cc(C(=O)N2CCC[C@@H](N)C2)cc2nc(-c3cc4ccc5nc4n3CCCCCCCC(=O)N[C@@H]5C(F)(F)F)n(C)c12 (single isomer, unassigned) [Example 235, (11˜{S})-17-[5-[(3˜{R})-3-aminopiperidine-1-carbonyl]-7-methoxy-1-methyl-benzimidazol-2-yl]-11-(trifluoromethyl)-1,10,19-triazatricyclo[10.5.2.0^{15,18}]nonadeca-12(19),13,15(18),16-tetraen-9-one]
858	COc1cc(C(=O)N2CCC[C@@H](N)C2)cc2nc(-c3cc4ccc5nc4n3CCCCCCCC(=O)N[C@H]5C(F)(F)F)n(C)c12 (single isomer, unassigned) [Example 236, (11˜{R})-17-[5-[(3˜{R})-3-aminopiperidine-1-carbonyl]-7-methoxy-1-methyl-benzimidazol-2-yl]-11-(trifluoromethyl)-1,10,19-triazatricyclo[10.5.2.0^{15,18}]nonadeca-12(19),13,15(18),16-tetraen-9-one]
411	COc1cc(C(=O)N2CC[C@H]3OCCN[C@H]3C2)cc2nc(-c3cc4ccc5nc4n3C[C@H]3C[C@H]3COCCC(=O)N[C@@H]5C)n(C)c12 (single isomer, unassigned) [Example 245, (3˜{S},5˜{R},12˜{R})-18-[5-[(4˜{a}˜{S},8˜{a}˜{R})-2,3,4,4˜{a},5,7,8,8˜{a}-octahydropyrido[4,3-b][1,4]oxazine-6-carbonyl]-7-methoxy-1-methyl-benzimidazol-2-yl]-12-methyl-7-oxa-1,11,20-triazatetracyclo[11.5.2.0^{3,5}.0^{16,19}]icosa-13(20),14,16(19),17-tetraen-10-one]
3320	COc1cc(C(=O)N2CC[C@@H]3OCCN[C@@H]3C2)cc2nc(-c3cc4ccc5nc4n3C[C@H]3C[C@H]3COCCC(=O)N[C@@H]5C)n(C)c12 (single isomer, unassigned) [Example 246, (3˜{S},5˜{R},12˜{R})-18-[5-[(4˜{a}˜{R},8˜{a}˜{S})-2,3,4,4˜{a},5,7,8,8˜{a}-octahydropyrido[4,3-b][1,4]oxazine-6-carbonyl]-7-methoxy-1-methyl-benzimidazol-2-yl]-12-methyl-7-oxa-1,11,20-triazatetracyclo[11.5.2.0^{3,5}.0^{16,19}]icosa-13(20),14,16(19),17-tetraen-10-one]
106	COc1cc(C(=O)N2CC[C@H]3CCCN[C@H]3C2)cc2nc(-c3cc4ccc5nc4n3CCCCCCC(C)(C)C(=O)N[C@@H]5C)n(C)c12 (single isomer, unassigned) [Example 261, (11˜{R})-17-[5-[(4˜{a}˜{R},8˜{a}˜{R})-2,3,4,4˜{a},5,6,8,8˜{a}-octahydro-1˜{H}-1,7-naphthyridine-7-carbonyl]-7-methoxy-1-methyl-benzimidazol-2-yl]-8,8,11-trimethyl-1,10,19-triazatricyclo[10.5.2.0^{15,18}]nonadeca-12(19),13,15(18),16-tetraen-9-one]
4440	COc1cc(C(=O)N2CC[C@@H]3CCCN[C@@H]3C2)cc2nc(-c3cc4ccc5nc4n3CCCCCCC(C)(C)C(=O)N[C@@H]5C)n(C)c12 (single isomer, unassigned) [Example 262, (11˜{R})-17-[5-[(4˜{a}˜{S},8˜{a}˜{S})-2,3,4,4˜{a},5,6,8,8˜{a}-octahydro-1˜{H}-1,7-naphthyridine-7-carbonyl]-7-methoxy-1-methyl-benzimidazol-2-yl]-8,8,11-trimethyl-1,10,19-triazatricyclo[10.5.2.0^{15,18}]nonadeca-12(19),13,15(18),16-tetraen-9-one]
